Data taken from paper PMC8325119, “A Novel Class of Functionalized Synthetic Fluoroquinolones with Dual Antiproliferative - Antimicrobial Capacities” (Asian Pacific Journal of Cancer Prevention : APJCP, 2021).
In brackets after ≈: the same amount, converted by molar mass. Several values for one entry are separate records, joined by “and”; a condition that tells them apart may be missing. Equal entries are not always repeated. Where two headings read alike, the source gives them in different places.

Key:
A549 cell line = assay: SRB cytotoxicity assay, A549 lung cancer cell line; conditions: Homo sapiens, A549, 72 h, read-out: Cytotoxicity IC50 value, A549 cell line
A375.S2 cell line = assay: SRB cytotoxicity assay, A375.S2 melanoma cell line; conditions: Homo sapiens, A375-S2, 72 h, read-out: Cytotoxicity IC50 value, A375.S2 cell line
MCF7 cell line = assay: SRB cytotoxicity assay, MCF7 breast cancer cell line; conditions: Homo sapiens, MCF7, 72 h, read-out: Cytotoxicity IC50 value, MCF7 cell line
HELA cell line = assay: SRB cytotoxicity assay, HELA cervical cancer cell line; conditions: Homo sapiens, HeLa, 72 h
K562 cell line = assay: SRB cytotoxicity assay, K562 leukaemia cell line; conditions: Homo sapiens, K562, 72 h
PANC 1 cell line = assay: SRB cytotoxicity assay, PANC 1 pancreatic cancer cell line; conditions: Homo sapiens, PANC-1, 72 h, read-out: Cytotoxicity IC50 value, PANC 1 cell line
T47D cell line = assay: cells; conditions: Homo sapiens, T47D, 72 h, read-out: Cytotoxicity IC50 value, T47D cell line
How it was run: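 IC50 from a sulforhodamine B colorimetric viability assay. Primary human periodontal ligament fibroblasts serve as the normal reference; the selectivity ratio divides the fibroblast IC50 by the IC50 on each pathological line.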

PDL Fibroblasts = assay: SRB cytotoxicity on normal periodontal ligament fibroblasts, selective cytotoxicity; format: cell-based, Human; conditions: for IC50: Homo sapiens, Fibroblast, normal fibroblasts, SRB, 72 h, mean ± SD; for Selectivity index SI (K562): IC50 on PDL fibroblasts divided by IC50 on K562; for Selectivity index SI (A375.S2): IC50 on PDL fibroblasts divided by IC50 on A375.S2
How it was run: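 Human periodontal ligament fibroblasts, a primary normal culture, tested by SRB colorimetric assay for cell viability. Selectivity ratio = IC50 on normal fibroblasts divided by IC50 on the pathological cell line.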

[1] = tested on: Staphylococcus aureus (S. aureus) ATCC 6538; assay: Quantitative antimicrobial assessment (MIC) against S. aureus; format: cell-based; conditions: for MIC potency compared with ciprofloxacin, S. aureus: in words; for MIC: Staphylococcus aureus, ATCC6538, Gram positive, ATCC 6538
[2] = tested on: Candida albicans (C. albicans) ATCC 1023; assay: Quantitative antimycotic assessment (MIC) against C. albicans; format: cell-based; conditions: in words
HCT116 = tested on: HCT116; design: method as in earlier work; conditions: colon cancer cells, Figure 1; ref Arabiyat et al. 2016a,b; 2017; Alabsi et al. 2018; Jumah 2018; AlShahrabi et al., 2020; read-out: IC50 against HCT116; cited from earlier work
SW620 = tested on: SW620; design: method as in earlier work; conditions: colon cancer cells, Figure 1; ref Arabiyat et al. 2016a,b; 2017; Alabsi et al. 2018; Jumah 2018; AlShahrabi et al., 2020; read-out: IC50 against SW620; cited from earlier work
[3] = read-out: Cytotoxicity IC50 value, HELA cell line, SRB, 72 h, 0.1-200 μg/mL range, mean ± SD, value in brackets
[4] = read-out: Cytotoxicity IC50 value, HELA cell line, SRB, 72 h, 0.1-200 μg/mL range, mean ± SD, NI = lack of cytotoxicity in range
[5] = read-out: Cytotoxicity IC50 value, K562 cell line, SRB, 72 h, 0.1-200 μg/mL range, mean ± SD, value in brackets
[6] = read-out: Cytotoxicity IC50 value, K562 cell line, SRB, 72 h, 0.1-200 μg/mL range, mean ± SD, NI = lack of cytotoxicity in range
[7] = 0.1-200 μg/mL range, NI = lack of cytotoxicity in range

SMILES | IC50 (A549 cell line) | IC50 (A375.S2 cell line) | IC50 (MCF7 cell line) | IC50 (HELA cell line; [3]) [µg/mL] | IC50 (HELA cell line; [4]) [µM] | IC50 (K562 cell line; [5]) [µg/mL] | IC50 (K562 cell line; [6]) | IC50 (PANC 1 cell line) | IC50 (T47D cell line) | IC50 (PDL Fibroblasts; [7]) | IC50 (PDL Fibroblasts; value in brackets) [µg/mL] | Selectivity index SI (K562) (PDL Fibroblasts) | MIC potency compared with ciprofloxacin, S. aureus [1] | Selectivity index SI (A375.S2) (PDL Fibroblasts) | Antibacterial activity (in words) ([1]; esters vs free acid, Gram positive strain context) | MIC [1] [µM] | Antimycotic MIC potency compared with fluconazole, C. albicans [2] | IC50 (HCT116) [µM] | IC50 (SW620) [µM] | Selectivity index SI (MCF7) (PDL Fibroblasts; IC50 on PDL fibroblasts divided by IC50 on MCF7)
COc1ccccc1-n1nnc2c3c(cc(F)c21)c(=O)c(C(=O)O)cn3C1CC1 [5a, 9-cyclopropyl-4-fluoro-3-(2-methoxy-phenyl)-6-oxo-6,9-dihydro-3H-[1,2, and 3] triazolo [4,5-h] quinoline-7-carboxylic acid] | > 200 µg/mL | 171 µM and 67.2 µg/mL | 44.3 µM and 17.4 µg/mL | 124 | 299 ± 11.4 | 16.4 | 41.7 ± 6.86 µM | 201 µM and 78.9 µg/mL | 42.1 µM and 16.6 µg/mL | 279 ± 27.4 µM | 110 | 6.71 | significantly more potent than ciprofloxacin | – | – | – | – | – | – | –
CCOC(=O)c1cn(C2CC2)c2c([N+](=O)[O-])c(Nc3ccc(F)cc3)c(F)cc2c1=O [2H] | 447 µM and 200 µg/mL | 271 µM and 121 µg/mL | > 200 µg/mL | 647 | 1510 ± 68.2 | 346 | 806 ± 59.2 µM | 485 µM and 208 µg/mL | 833 µM and 344 µg/mL | 560 ± 87.5 µM | 231 | – | – | 2.07 | lacked antibacterial activity | – | – | – | – | –
COc1ccc(Nc2c(F)cc3c(=O)c(C(=O)O)cn(C4CC4)c3c2N)c(OC)c1 [4g, 8-amino-1-cyclopropyl-7-(2,4-dimethoxy-phenylamino)-6-fluoro-4-oxo-1,4-dihydro-quinoline-3-carboxylic acid] | 709 µM and 306 µg/mL | 807 µM and 348 µg/mL | 317 µM and 137 µg/mL | 120 | 277 ± 39 | – | > 200 µg/mL | 310 µM and 128 µg/mL | 1.01 mM and 435 µg/mL | > 200 µg/mL | – | – | significantly more potent than ciprofloxacin | – | – | 0.004 (≈ 0.00165 µg/mL) | – | – | – | –
CCc1ccc(-n2nnc3c4c(cc(F)c32)c(=O)c(C(=O)O)cn4C2CC2)cc1 [5d, 9-cyclopropyl-4-fluoro-3-(4-ethyl-phenyl)-6-oxo-6,9-dihydro-3H-[1,2,3] triazolo[4,5-h]quinoline-7-carboxylic acid] | 161 µM and 63 µg/mL | 124 µM and 48.5 µg/mL | 177 µM and 69.1 µg/mL | 447 | 1140 ± 82.4 | 63.8 | 163 ± 22.6 µM | 163 µM and 63.8 µg/mL | 372 µM and 146 µg/mL | 165 ± 16.1 µM | 64.5 | – | significantly more potent than ciprofloxacin | 1.33 | – | – | – | – | – | –
CCCCc1ccc(Nc2c(F)cc3c(=O)c(C(=O)O)cn(C4CC4)c3c2N)cc1 [4e, 8-Amino-1-cyclopropyl-6-fluoro-7-(4-butyl-phenylamino)-4-oxo-1,4-dihydro-quinoline-3-carboxylic acid] | 25.1 µM and 10.3 µg/mL | 79.2 µM and 32.4 µg/mL | 107 µM and 44 µg/mL | 27.6 | 67.3 ± 6.64 | 0.002 | 0.005 ± 0.0009 µM | 20.8 µM and 8.5 µg/mL | 44.1 µM and 18 µg/mL | 43 ± 3.02 µM | 18.9 | 8592 | significantly more potent than ciprofloxacin | – | – | 0.32 (≈ 0.131 µg/mL) | more potent than antimycotic flucanozole | – | – | –
CCn1cc(C(=O)O)c(=O)c2cc(F)c(Nc3ccc(Cl)cc3)c(N)c21 [A (X =Cl)] | – | – | – | – | – | – | – | – | – | – | – | – | – | – | – | – | – | 3.5 | 11.7 | –
CCn1cc(C(=O)O)c(=O)c2cc(F)c3c(nnn3-c3ccc(OC)cc3OC)c21 [13c, 3-(2,4-dimethoxy-phenyl)-9-ethyl-4-fluoro-6-oxo-6,9-dihydro-3H-[1,2,3] triazolo[4,5-h]quinoline-7-carboxylic acid] | 662 µM and 272 µg/mL | 487 µM and 201 µg/mL | 4.15 µM and 1.71 µg/mL | 179 | 435 ± 71.7 | 28.2 | 68.7 ± 8.04 µM | 138 µM and 56.6 µg/mL | 182 µM and 74.7 µg/mL | 172 ± 17.8 µM | 70.6 | – | significantly more potent than ciprofloxacin | – | – | – | – | – | – | 41.35
CCCCc1ccc(-n2nnc3c4c(cc(F)c32)c(=O)c(C(=O)O)cn4C2CC2)cc1 [5e, 9-cyclopropyl-4-fluoro-3-(4-butyl-phenyl)-6-oxo-6,9-dihydro-3H-[1,2,3] triazolo[4,5-h]quinoline-7-carboxylic acid] | 181 µM and 76 µg/mL | 103 µM and 43.1 µg/mL | 105 µM and 44.2 µg/mL | 153 | 364 ± 22.8 | 20.6 | 49 ± 7.2 µM | 87.1 µM and 36.5 µg/mL | 97.6 µM and 41 µg/mL | 72.6 ± 3.56 µM | 30.4 | 1.48 | – | – | – | – | more potent than antimycotic flucanozole | – | – | –
